# Results taken from publication PMC5542402 (Combinatorial chemistry & high throughput screening, 2016).
# Like-named read-outs stand apart in the source and are kept apart here.
# How the values were obtained:
# PhoP [1] = biological target: T1, PhoP (Mycobacterium tuberculosis, UniProt P71814, D106C); format: binding
# PhoP [2] = biological target: T1, PhoP; format: binding; remark: listed apart in the source
Molecule,IC50 (PhoP [1]) [µM],IC50 (PhoP [2]) [µM]
CCCCCCCCCC(CC)c1ccc(S(=O)(=O)O)cc1 (centres unmarked) [NCGC00244580],35.8,
NCGC00161636,,15.5
